Source: paper PMC8344233, “Anticancer activity and toxicity of new quaternary ammonium geldanamycin derivative salts and their mixtures with potentiators” (Journal of Enzyme Inhibition and Medicinal Chemistry, 2021)
≈ marks a conversion by molar mass, not a printed value.

Assays:
HDF = assay: SRB cytotoxicity assay, human dermal fibroblasts HDF; type: cell-based; conditions: 72 h, ± SD, mixtures equimolar 1:1, read-out: IC50 HDF (toxicity in normal cells)
Experimental: (§1) Medium. Human Dermal Fibroblasts cell line (HDF) was cultured in Fibroblast Basal Medium.
(§2) Each medium was supplemented with 10% fetal bovine serum, 1% L-glutamine, and 1% penicillin/streptomycin solution. The cell lines were kept in the incubator at 37◦C. The optimal plating density of cell lines was determined to be 5 × 104. All the cell lines and mediums were obtained from American Type Culture Collection (ATCC) supplied by LGC-Standards. The protein-staining SRB (Sigma-Aldrich) microculture colorimetric assay, developed by the National Cancer Institute (USA) for in vitro antitumor screening was used in this study, to estimate the cell number by providing a sensitive index of total cellular protein content, being linear to cell density. The monolayer cell culture was trypsinized and the cell count was adjusted to 5 × 10^4 cells. To each well of the 96 well microtiter plate, 0.1 mL of the diluted cell suspension (approximately […]) was added. After 24 hours, when a partial monolayer was formed, the supernatant was washed out and 100 μL of six different compound concentrations (0.1, 0.2, 1, 2, 10, and 20 μM) were added to the cells in microtitre plates. The tested compounds were dissolved in DMSO (containing 10 % of water) (100 μL) and the […]
(§3) lines. The cells were exposed to compounds for 72 hours at 37 °C in a humidified atmosphere (90% RH) containing 5% CO2. After that, 25 μL of 50 % trichloroacetic acid was added to the wells and the plates were incubated for 1 hour at 4◦C. The plates were then washed out with the distilled water to remove traces of medium and next dried by the air. The air-dried plates were stained with 100 μL of 0.4% sulforhodamine B (prepared in 1 % acetic acid) and kept for 30 minutes at room temperature. The unbound dye was removed by rapidly washing with 1% […]
(§4) acetic acid and then air dried overnight. The protein-bound dye was dissolved in 100 μL of 10 mM unbuffered Tris base (pH 10.5) for optical density determination at 490 nm. All cytotoxicity experiments were performed three times. Cell survival was measured as the percentage absorbance compared to the control (nontreated cells). Cytarabine (ara-C) and GDM were used as the internal standards. Additionally biological assays were performed in Human Dermal Fibroblasts cell line (HDF) in aim to evaluate cytotoxicity of GDM and its 1-13 analogs in healthy cells. SI indexes were calculated from equation SI = IC50 normal cell line HDF/IC50 respective cancerous cell line (Table 2). A beneficial SI > 1.0 indicates a compound with efficacy against tumor cell greater than the toxicity against normal cells. […]

HepG2 = assay: MTT cytotoxicity assay, HepG2 (1st panel); type: cell-based, human; conditions: for IC50: Homo sapiens, HepG2, ± SD, MTT, 72 h; for selectivity index SI (HepG2): IC50 normal cell line CCD39Lu/IC50 HepG2
Experimental: (§5) Cell survival was measured as the percentage absorbance compared to the control (nontreated cells). […]
(§6) SI indexes were calculated from equation SI = IC50 normal cell line HDF/IC50 respective cancerous cell line (Table 2). A beneficial SI > 1.0 indicates a compound with efficacy against tumor cell greater than the toxicity against normal cells.
(§7) All experiments were carried out with human breast adenocarcinoma (MDA-MB-231 and MCF-7), hepatocellular carcinoma (HepG2), human cervical adenocarcinoma (HeLa) cancer cell lines, and human normal lung fibroblast (CCD39Lu) cell line. The cell line was purchased from the European Collection of Cells Cultures (ECACC, Salisbury, UK), and cultured in DMEM with phenol red supplemented with 10% (v/v) FBS, 1% (v/v) penicillin/streptomycin, and 1% (v/v) L-glutamine at 37 °C, in a humidified atmosphere containing 5% CO2.
(§8) The tested compounds were dissolved in DMSO to the final concentration 10 mM and stored […]
(§9) The cytotoxic effect of the tested compounds was determined by MTT assay. MDA-MB-231, MCF-7, HepG2, HeLa, and CCD39Lu cells were seeded in 96 wells plates at density 2x10^4 cells/well and incubated overnight under cell culture condition. Next, cells were treated with tested compounds at concentrations of 10 µM; 5 µM; 2.5 µM; 1.2 µM; 0.6 µM; 0.3 µM; 0.15 […]
(§10) µM. Moreover, GDM (for MCF-7) and 8 (for MCF-7 and MDA-MB-231) due to high cytotoxicity, were additionally tested at a lower concentration range of 2.5 µM; 1.2 µM; 0.6 µM; 0.3 µM; 0.15µM; 0.07 µM; 0.03 µM. DMSO was used as a control, and the concentration […]
(§11) Tested compounds were added to cells in the medium without phenol red. Cells were incubated 72 h at 37 °C in a humidified atmosphere containing 5% CO2.
(§12) Then, the medium was aspirated and MTT solution at a concentration of 0.59 mg/mL in cell culture medium was added to each well. Plates were incubated for 1.5 hours at 37 °C, and then plates were centrifuged for 3 minutes. The formazan crystals were dissolved in 200 µl DMSO and plates were agitated on a plate shaker at 300 –500 rpm for 10 minutes. Absorbance at 570 nm was measured using a plate reader (Biotek Instruments, Elx -800). Data were normalized to the mean absorption of control cells. All experiments were performed at least three times. […]

SKBR-3 = assay: SRB cytotoxicity assay, SKBR-3 (2nd panel); type: cell-based, human; conditions: for IC50: Homo sapiens, SK-BR-3, ± SD, SRB, 72 h, mixtures equimolar 1:1; for selectivity index SIHDF (SKBR-3): IC50 normal cell line HDF/IC50 SKBR-3
Experimental: Human cancer cells SKBR-3 (human breast cancer cell line) and SKOV-3 (ovarian cancer cell line) were cultured in McCoy’s Modified Medium. […]
as §1, §2, §3, §4

HeLa = assay: MTT cytotoxicity assay, HeLa (1st panel); type: cell-based, human; conditions: for IC50: Homo sapiens, HeLa, ± SD, MTT, 72 h; for selectivity index SI (HeLa): IC50 normal cell line CCD39Lu/IC50 HeLa
Experimental: as §5, §6, §7, §8, §9, §10, §11, §12

PC-3 = assay: SRB cytotoxicity assay, PC-3 (2nd panel); type: cell-based, human; conditions: for IC50: Homo sapiens, PC-3, ± SD, SRB, 72 h, mixtures equimolar 1:1; for selectivity index SIHDF (PC-3): IC50 normal cell line HDF/IC50 PC-3
Experimental: as §1, §2, §3, §4

CCD39Lu = assay: MTT cytotoxicity assay, normal lung fibroblasts CCD39Lu; type: cell-based; conditions: Fibroblast, ± SD, healthy human lung fibroblasts, 72 h, read-out: IC50 CCD39Lu (toxicity in normal cells)
Experimental: as §5, §6, §7, §8, §9, §10, §11, §12

MDA-MB-231 = assay: MTT cytotoxicity assay, MDA-MB-231 (1st panel); type: cell-based, human; conditions: for IC50: Homo sapiens, MDA-MB-231, ± SD, MTT, 72 h; for selectivity index SI (MDA-MB-231): IC50 normal cell line CCD39Lu/IC50 MDA-MB-231
Experimental: as §5, §6, §7, §8, §9, §10, §11, §12

A-549 = assay: SRB cytotoxicity assay, A-549 (2nd panel); type: cell-based, human; conditions: for IC50: Homo sapiens, A549, ± SD, SRB, 72 h; for selectivity index SIHDF (A-549): IC50 normal cell line HDF/IC50 A-549
Experimental: as §1, §2, §3, §4

physchem = conditions: water, Solubility SH2O

Compound | CC50 (HDF) | IC50 (HepG2) | selectivity index SI (HepG2) (HepG2) | IC50 (SKBR-3) | selectivity index SIHDF (SKBR-3) (SKBR-3) | IC50 (HeLa) | selectivity index SI (HeLa) (HeLa) | IC50 (PC-3) | selectivity index SIHDF (PC-3) (PC-3) | IC50 (CCD39Lu) | IC50 (MDA-MB-231) | selectivity index SI (MDA-MB-231) (MDA-MB-231) | IC50 (A-549) | selectivity index SIHDF (A-549) (A-549) | solubility (physchem)
CO[C@H]1/C=C\C=C(/C)C(=O)NC2=CC(=O)C(NC3CCC3)=C(C[C@@H](C)C[C@H](OC)[C@H](O)[C@@H](C)/C=C(\C)[C@@H]1OC(N)=O)C2=O [Compound 1] | 30 µM | 1.75 ± 0.04 µM | > 5.71 | 7.44 ± 0.09 µM | 4.03 | 1.67 ± 0.54 µM | > 5.99 | 7.02 ± 0.06 µM | 4.28 | > 10 µM | 2.45 ± 0.78 µM | > 4.08 | 9.01 ± 0.63 µM | 3.33 | 
CO[C@H]1/C=C\C=C(/C)C(=O)NC2=CC(=O)C(NC3CN4CCC3CC4)=C(C[C@@H](C)C[C@H](OC)[C@H](O)[C@@H](C)/C=C(\C)[C@@H]1OC(N)=O)C2=O (stereo partly drawn) [Compound 8] | 3.22 ± 0.18 µM | 1.25 ± 0.22 µM | 0.70 | 1.49 ± 0.29 µM | 2.16 | 1.06 ± 0.26 µM | 0.82 | 1.47 ± 0.31 µM | 2.19 | 0.87 ± 0.22 µM | 0.14 ± 0.01 µM | 6.21 | 0.94 ± 0.03 µM |  | 150 µg/mL (≈ 229 µM)
C=CC[N+]12CCC(CC1)C(NC1=C3C[C@@H](C)C[C@H](OC)[C@H](O)[C@@H](C)/C=C(\C)[C@H](OC(N)=O)[C@@H](OC)/C=C\C=C(/C)C(=O)NC(=CC1=O)C3=O)C2 (stereo partly drawn) [Compound 9] | ~5.29 µM | > 10 µM | > 1 | 3.12 ± 0.01 µM | 1.70 | 9.25 ± 0.98 µM | > 1.08 | 3.01 ± 0.11 µM | 1.76 | > 10 µM | 4.65 ± 2.65 µM | > 2.15 | 3.09 ± 0.01 µM | 1.71 | 
C/C=C/C[N+]12CCC(CC1)C(NC1=C3C[C@@H](C)C[C@H](OC)[C@H](O)[C@@H](C)/C=C(\C)[C@H](OC(N)=O)[C@@H](OC)/C=C\C=C(/C)C(=O)NC(=CC1=O)C3=O)C2 (stereo partly drawn) [Compound 10] | 2.96 ± 0.36 µM | > 10 µM | > 1 | 1.94 ± 0.52 µM | 1.53 | 7.43 ± 3.21 µM | > 1.35 | 1.88 ± 0.02 µM | 1.57 | > 10 µM | 4.64 ± 1.51 µM | > 2.16 | 1.29 ± 0.07 µM | 2.29 | > 5000 µg/mL
CO[C@H]1/C=C\C=C(/C)C(=O)NC2=CC(=O)C(NC3C[N+]4(C/C=C/c5ccccc5)CCC3CC4)=C(C[C@@H](C)C[C@H](OC)[C@H](O)[C@@H](C)/C=C(\C)[C@@H]1OC(N)=O)C2=O (stereo partly drawn) [Compound 13] | ~3.81 µM | > 10 µM | > 1 | 2.02 ± 0.11 µM | 1.89 | 8.14 ± 0.64 µM | > 1.23 | 2.05 ± 0.09 µM | 1.86 | > 10 µM | 4.66 ± 2.49 µM | > 2.15 | 2.06 ± 0.01 µM | 1.85 | > 5000 µg/mL
